Results from ChEMBL document CHEMBL1201862, “PubChem BioAssay data set” (2004).
Activity calls are given as the source filed them.

How the values were obtained:
[1] = target: Endoplasmic reticulum aminopeptidase 1 (Homo sapiens, UniProt Q9NZ08); assay: inhibition of human ERAP1 enzyme activity – biochemical, cherry-pick, set 2, plate reader, dose response (AID 743314)
fMet-Leu-Phe receptor = fMet-Leu-Phe receptor (Homo sapiens, UniProt P21462); assay: formyl peptide receptor binders – dose response (AID 519); type: functional
Chain of fMet-Leu-Phe receptor (P21462 whole entry): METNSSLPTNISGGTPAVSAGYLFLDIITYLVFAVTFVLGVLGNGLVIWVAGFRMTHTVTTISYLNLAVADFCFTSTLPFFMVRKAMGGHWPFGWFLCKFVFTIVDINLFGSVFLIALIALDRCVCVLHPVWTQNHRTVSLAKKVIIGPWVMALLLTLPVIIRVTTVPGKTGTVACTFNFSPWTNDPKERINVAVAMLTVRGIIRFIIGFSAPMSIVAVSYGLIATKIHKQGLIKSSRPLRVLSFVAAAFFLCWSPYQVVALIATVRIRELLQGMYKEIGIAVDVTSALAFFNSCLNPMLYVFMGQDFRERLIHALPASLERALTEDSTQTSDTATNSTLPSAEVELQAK

Paired box protein Pax-8 = Paired box protein Pax-8 (Homo sapiens, UniProt Q06710); assay: PAX8 transcriptional activity inhibition in RMG-I – RMG-I cells, luciferase, cherry-pick, dose response (AID 687027); type: functional, cell-based;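 further: luciferase reporter driven by Pax8 target thyroperoxidase promoter measured by SteadyGlo luminescence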
Chain of Paired box protein Pax-8 (Q06710 whole entry): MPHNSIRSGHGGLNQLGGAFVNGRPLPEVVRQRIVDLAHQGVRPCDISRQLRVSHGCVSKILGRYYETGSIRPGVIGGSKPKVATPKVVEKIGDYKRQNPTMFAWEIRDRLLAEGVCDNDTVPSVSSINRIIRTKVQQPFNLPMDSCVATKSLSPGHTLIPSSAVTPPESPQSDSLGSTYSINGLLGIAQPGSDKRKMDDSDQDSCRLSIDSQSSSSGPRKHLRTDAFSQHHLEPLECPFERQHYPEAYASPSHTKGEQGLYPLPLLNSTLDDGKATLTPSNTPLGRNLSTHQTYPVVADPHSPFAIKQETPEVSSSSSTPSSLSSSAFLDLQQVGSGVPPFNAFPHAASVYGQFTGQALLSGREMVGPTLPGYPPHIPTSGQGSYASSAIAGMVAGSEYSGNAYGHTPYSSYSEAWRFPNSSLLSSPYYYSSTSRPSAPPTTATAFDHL

H9c2 = assay: cells; type: functional, cell-based; settings: Rattus norvegicus, H9c2, Myocardium;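 further: confirmatory concentration-response retest of ultra-high-throughput screening hits for modulation of myocardial damage; cell death induced by hydrogen peroxide oxidative stress; compound pretreatment for 60 min then peroxide exposure for 2 h; potency is for protecting the cells against peroxide damage rather than for killing them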
[2] = general cell-killing toxicity readout – plate reader, dry powder samples, cytotoxicity control for PAX8 inhibitor project, dose response (AID 743021); type: functional, cell-based
[3] = target: T1, Probable nicotinate-nucleotide adenylyltransferase (Staphylococcus aureus (strain N315), UniProt P65502); type: functional, Staphylococcus aureus subsp. aureus N315;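 on IC50 Mean: confirmatory dose-response retesting of NadD inhibitor hits first found in an ultra-high-throughput screen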
T1 sequence (P65502 whole entry): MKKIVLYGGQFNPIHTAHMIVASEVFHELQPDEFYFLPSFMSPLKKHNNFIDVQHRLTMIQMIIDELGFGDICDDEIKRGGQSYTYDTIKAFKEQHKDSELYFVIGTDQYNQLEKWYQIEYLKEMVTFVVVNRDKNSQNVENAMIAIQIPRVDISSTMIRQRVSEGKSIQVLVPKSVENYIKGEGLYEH

[4] = fluconazole-exposed Candida albicans growth modulators – fluorescence, retest, confirmation (AID 2467); type: functional, cell-based
[5] = test system: Streptococcus sp. 'group A'; assay: Streptococcus pyogenes SK(-)GAS viability under kanamycin – luminescence, BacTiterGlo, confirmation, counter-screen for streptokinase expression inhibitor project, dose response (AID 1900); type: functional, organism-based
[6] = target: Disintegrin and metalloproteinase domain-containing protein 17 (Homo sapiens, UniProt P78536); assay: inhibition of ADAM17 substrate cleavage – biochemical, quenched FRET substrate, counter-screen for ADAM10 exosite inhibitor project, dose response (AID 743253)
Chain of Disintegrin and metalloproteinase domain-containing protein 17 (P78536 whole entry, the tested form may be a part): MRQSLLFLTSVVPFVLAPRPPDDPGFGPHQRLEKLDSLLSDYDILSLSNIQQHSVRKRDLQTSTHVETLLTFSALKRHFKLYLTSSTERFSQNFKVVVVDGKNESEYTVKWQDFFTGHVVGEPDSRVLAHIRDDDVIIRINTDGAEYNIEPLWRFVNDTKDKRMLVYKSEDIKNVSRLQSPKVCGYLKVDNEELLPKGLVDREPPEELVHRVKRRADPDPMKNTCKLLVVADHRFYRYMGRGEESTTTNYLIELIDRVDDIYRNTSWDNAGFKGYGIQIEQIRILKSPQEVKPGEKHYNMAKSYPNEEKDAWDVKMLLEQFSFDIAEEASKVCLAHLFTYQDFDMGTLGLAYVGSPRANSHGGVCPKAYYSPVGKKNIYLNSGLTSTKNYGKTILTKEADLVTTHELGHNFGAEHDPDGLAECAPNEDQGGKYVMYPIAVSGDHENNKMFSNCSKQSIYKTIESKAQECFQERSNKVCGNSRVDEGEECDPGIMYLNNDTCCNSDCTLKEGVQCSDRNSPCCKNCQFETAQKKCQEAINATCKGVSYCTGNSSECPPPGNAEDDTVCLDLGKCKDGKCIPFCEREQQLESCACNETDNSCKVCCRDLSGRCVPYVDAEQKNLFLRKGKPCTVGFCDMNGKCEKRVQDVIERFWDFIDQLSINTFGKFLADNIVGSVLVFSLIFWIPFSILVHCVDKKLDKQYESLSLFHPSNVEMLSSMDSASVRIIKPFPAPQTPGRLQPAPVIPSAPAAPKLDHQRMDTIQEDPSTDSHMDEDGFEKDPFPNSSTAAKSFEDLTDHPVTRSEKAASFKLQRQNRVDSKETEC

[7] = NIH-3T3 fibroblast cytotoxicity, dose response, cytotoxicity control, cell-based, fluorescence, Alamar Blue, secondary assay (AID 2327); type: functional;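 further: NIH-3T3 mouse fibroblasts cultured with fluconazole at 8 µg/mL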
Streptococcus = assay: GAS UMAA2166 growth inhibition – luminescence, BacTiterGlo, counter-screen for streptokinase expression inhibitor project, dose response (AID 1915); type: functional, organism-based;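 further: potency for reduction of bacterial viability or growth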
Streptokinase A = target: T2, Streptokinase A (Streptococcus pyogenes serotype M1, UniProt P10520); assay: viability-normalized secreted streptokinase activity reduction – plasminogen activation absorbance, OD405, dose response (AID 1914); type: functional, Streptococcus pyogenes M1 GAS;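 further: secreted streptokinase activity via plasminogen activation per viability signal from cell pellet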
T2 sequence (P10520 whole entry): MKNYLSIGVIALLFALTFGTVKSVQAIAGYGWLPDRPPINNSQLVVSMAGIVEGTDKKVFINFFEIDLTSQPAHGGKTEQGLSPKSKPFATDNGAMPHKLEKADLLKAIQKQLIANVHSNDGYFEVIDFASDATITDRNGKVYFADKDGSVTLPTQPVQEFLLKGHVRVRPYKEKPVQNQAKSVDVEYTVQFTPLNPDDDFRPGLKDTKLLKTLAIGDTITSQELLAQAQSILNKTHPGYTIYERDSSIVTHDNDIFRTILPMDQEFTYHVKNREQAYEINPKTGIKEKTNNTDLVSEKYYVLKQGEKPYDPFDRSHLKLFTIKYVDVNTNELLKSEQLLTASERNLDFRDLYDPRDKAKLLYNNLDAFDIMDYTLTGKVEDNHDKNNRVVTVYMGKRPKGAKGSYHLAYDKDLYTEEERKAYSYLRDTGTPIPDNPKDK

[8] = target: T1, Probable nicotinate-nucleotide adenylyltransferase; type: functional, Staphylococcus aureus subsp. aureus N315; settings: read-out: IC50_Mean
[9] = target: T3, Heat shock factor protein 1 (Mus musculus, UniProt P38532); assay: decrease of HSF1-responsive luciferase luminescence – cell-based, NIH3T3, dose retest, confirmation (AID 2382); type: functional;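 further: NIH3T3 fibroblasts with HSF1-driven luciferase reporter stressed by proteasome inhibitor MG132; luminescence from HSF1-driven luciferase expression after 8 hours of MG132 stress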
T3 sequence (P38532 whole entry): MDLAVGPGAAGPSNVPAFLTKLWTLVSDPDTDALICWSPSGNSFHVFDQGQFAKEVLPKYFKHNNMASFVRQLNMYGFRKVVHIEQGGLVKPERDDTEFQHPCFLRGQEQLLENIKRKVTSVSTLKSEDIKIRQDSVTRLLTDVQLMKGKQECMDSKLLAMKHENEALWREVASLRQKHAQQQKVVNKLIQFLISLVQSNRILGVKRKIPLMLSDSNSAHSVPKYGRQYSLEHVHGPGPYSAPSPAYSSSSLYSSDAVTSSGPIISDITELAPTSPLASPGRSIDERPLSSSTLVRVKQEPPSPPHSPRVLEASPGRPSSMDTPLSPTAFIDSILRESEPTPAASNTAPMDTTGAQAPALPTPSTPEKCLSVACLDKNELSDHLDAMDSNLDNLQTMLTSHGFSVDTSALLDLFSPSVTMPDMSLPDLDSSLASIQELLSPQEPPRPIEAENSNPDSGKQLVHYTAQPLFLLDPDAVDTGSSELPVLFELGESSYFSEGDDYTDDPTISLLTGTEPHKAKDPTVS

[10] = toxicity toward HepG2 liver cells – cell-based, plate reader, cherry-pick, antagonist series, cytotoxicity control, dose response (AID 743416); type: functional
[11] = alpha-synuclein stem-loop luciferase translation blockers – H4 neuroglioma cells, luminescence, confirmation (AID 1988); type: functional, cell-based
[12] = blockade of melanocortin 4 receptor signaling – cell-based, plate reader, cherry pick, counter-screen for LGR2 antagonist project, dose response (AID 743444); type: functional;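 further: transfected HEK 293 cells stimulated with alpha-MSH peptide; potency of inhibitors of the alpha-MSH evoked signal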
[13] = Luminescence Cell-Based Dose Response HTS to Identify Inhibitors of 5'UTR Stem-Loop Driven Prion Protein mRNA Translation in H4 Neuroglioblastoma Cells. [Related pubchem assays: 1827 (Project Summary), 1813 (Primary HTS)]; type: functional
[14] = luciferase reporter signal suppression in cells – H4 neuroglioma cells, luminescence, dose response (AID 1990); type: functional, cell-based
[15] = viability loss in HEK293 cells – cell-based, plate reader, cherry-picked samples, cytotoxicity control, dose response (AID 743446); type: functional
[16] = A549 cell cytotoxicity, dose response, cytotoxicity control, plate reader, cherry-pick, antagonist series (AID 743412); type: functional, cell-based
[17] = blockers of bursicon-stimulated LGR2 cAMP reporter – cell-based, HEK293, CRE-luciferase reporter, cherry pick, set 2, dose response (AID 743343); type: functional;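 further: transfected cells were stimulated with diluted bursicon conditioned medium after compound addition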

Chain of Endoplasmic reticulum aminopeptidase 1 (Q9NZ08 whole entry): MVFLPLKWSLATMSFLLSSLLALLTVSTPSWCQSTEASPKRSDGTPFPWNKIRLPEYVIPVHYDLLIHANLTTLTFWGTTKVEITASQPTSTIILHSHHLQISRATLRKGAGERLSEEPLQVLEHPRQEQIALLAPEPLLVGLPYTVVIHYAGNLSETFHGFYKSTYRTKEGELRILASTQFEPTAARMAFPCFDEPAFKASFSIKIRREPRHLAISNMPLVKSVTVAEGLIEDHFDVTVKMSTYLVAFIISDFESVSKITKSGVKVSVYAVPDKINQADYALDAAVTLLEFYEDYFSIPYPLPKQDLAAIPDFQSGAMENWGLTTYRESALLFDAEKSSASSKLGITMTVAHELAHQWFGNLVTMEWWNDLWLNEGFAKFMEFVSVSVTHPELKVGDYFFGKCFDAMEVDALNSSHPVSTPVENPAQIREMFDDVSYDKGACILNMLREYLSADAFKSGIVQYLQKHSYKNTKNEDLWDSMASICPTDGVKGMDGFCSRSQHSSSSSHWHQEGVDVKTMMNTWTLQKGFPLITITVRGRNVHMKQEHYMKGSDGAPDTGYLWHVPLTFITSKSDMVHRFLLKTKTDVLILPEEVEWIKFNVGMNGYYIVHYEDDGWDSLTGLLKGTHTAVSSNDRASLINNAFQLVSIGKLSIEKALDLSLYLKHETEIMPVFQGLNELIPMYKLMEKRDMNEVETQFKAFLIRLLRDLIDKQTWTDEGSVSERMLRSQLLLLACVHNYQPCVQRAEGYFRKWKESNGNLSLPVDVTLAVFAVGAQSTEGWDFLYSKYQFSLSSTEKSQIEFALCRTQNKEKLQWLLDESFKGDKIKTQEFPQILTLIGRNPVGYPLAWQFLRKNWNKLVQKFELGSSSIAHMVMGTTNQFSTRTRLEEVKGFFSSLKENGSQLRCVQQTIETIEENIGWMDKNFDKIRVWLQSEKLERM

Structure (SMILES): O=C(NCCc1ccncc1)[C@H]1N[C@H]2c3ccc(/C=C/c4ccccc4)c(=O)n3C[C@H]2[C@@H]1CO
- AC50 [1]: 14.1 µM (active)

Structure (SMILES): CC1(C)S[C@@H]2[C@H](NC(=O)C(C(=O)O)c3ccccc3)C(=O)N2[C@H]1C(=O)O (stereo partly drawn) [CARBENICILLIN DISODIUM]
- Ki (fMet-Leu-Phe receptor): > 66.7 µM (inactive)

Structure (SMILES): C=C1C(C)C2C(Cc3ccccc3)NC(=O)C23OC(=O)/C=C/C(O)CCCC(C)C/C=C/C3C1O (stereo not drawn)
- AC50 (Paired box protein Pax-8): 3.15 µM (active)
- IC50 (H9c2): > 79 µM (inactive)
- AC50 [2]: 3.36 µM (active)

Structure (SMILES): O=C(NNC(=O)c1cc(-c2ccc(Cl)cc2)nc2ccccc12)c1csc(N2CCOCC2)n1
- IC50 [3]: 20.8 µM (active)
- EC50 [4]: 0.775 µM (active)
- EC50 [5]: 20 µM (active)
- IC50 [6]: > 69.5 µM (inactive)
- EC50 [7]: > 150 µM (inactive)
- EC50 (Streptococcus): 76.8 µM (active)
- EC50 (Streptokinase A): > 150 µM (not active)
- IC50 [8]: 58 µM (active)

Structure (SMILES): c1c2c(cc3sc(N4CCCCC4)nc13)OCCO2
- EC50 [9]: 11.5 µM (active)
- AC50 [10]: 30.7 µM (active)
- EC50 [11]: 8.83 µM (active)
- AC50 [12]: 1.97 µM (active)
- EC50 [13]: 8.9 µM (active)
- EC50 [14]: > 120 µM (not active)
- AC50 [15]: 13.6 µM (active)
- AC50 [16]: 32.9 µM (active)
- AC50 [17]: 1.58 µM (active)

Structure (SMILES): COCC(=O)N1[C@@H]2Cn3c(ccc(/C=C/c4ccccc4)c3=O)[C@H]1[C@@H](C(=O)N1CCOCC1)[C@@H]2CO
- AC50 [1]: 6.74 µM (active)
